“Also recorded” adds a separate entry of the source.
System: Guinea pig, Hartley-Dunkin

## O=[N+]([O-])c1ccc(Cl)c([N+](=O)[O-])c1 [1-Chloro-2,4-dinitrobenzene]
D15, D31, D38
  body weight compared with the negative control group: male animals showed slow weight gain; also recorded: female animals showed no significant difference in body weight
After challenge
  incidence of allergic reaction: 100%
